According to US20130011345A1, “FLAVOR-ENHANCING AMIDE COMPOUNDS” (priority 2011, published 2013):

Assay: Sensory evaluation of the MSG-IMP umami composition combined with Formulas II and III by a trained sensory panel
Conditions: for Flavor Profile: trained sensory panel; for Effect on umami flavor of the MSG-IMP mixture (summary statement): combined with MSG-IMP mixture, all tested concentrations
Source text: The MSG-IMP mixture (0.01% MSG and 0.005% IMP), an umami composition, was combined with Formulas II and III at different concentrations and evaluated by a trained sensory panel.

[1] = Formula concentration 1 ppm in MSG-IMP mixture (0.01% MSG and 0.005% IMP)
[2] = Formula concentration 500 ppb in MSG-IMP mixture (0.01% MSG and 0.005% IMP)

For `C#CC#CCC/C=C\C(=O)NCC(C)CC` (stereo not shown) [Formula III, (Z)-N-(2-methylbutyl)nona-2-en-6,8-diynamide], the “Flavor Profile” value [1] was “Increased mouthfullness, delocalized”, the “Flavor Profile” value [2] was “Increased mouthfullness, delocalized” and the “Effect on umami flavor of the MSG-IMP mixture (summary statement)” value was “enhanced the umami flavor”.

In the case of `C#CC#CCC/C=C/C(=O)NCC(C)CC` (stereo not shown) [Formula II, (E)-N-(2-methylbutyl)nona-2-en-6,8-diynamide], the “Flavor Profile” value [1] is reported as “Increased umami flavor and less greasy”, the “Flavor Profile” value (Formula concentration 5 ppm in MSG-IMP mixture (0.01% MSG and 0.005% IMP)) is reported as “Strong umami enhancement” and the “Flavor Profile” value [2] is reported as “Increased mouth-feel, savory”. For the same compound, the “Effect on umami flavor of the MSG-IMP mixture (summary statement)” value was “enhanced the umami flavor”.
